In patent EP0636633A1, “A triterpenoid saponin, extraction thereof and use to treat or prevent diabetes mellitus” (KOWA CHEMICAL INDUSTRIES CO., LTD., priority 1993, dated 1995):

How the values were obtained:
DDF male mice = test: Acute toxicity test, forced oral administration; details: for Number of dead animals: mouse, in vivo, po
Method: An acute toxicity test was effected by the following procedure.
Use was made of DDF male mice having a weight of 25 g, and each group consisted of 10 animals. The animals were ingested a solid feed (for breeding) while they freely got tap water as drinking water.
The triterpenoid saponin was suspended in 1% CMC physiological saline to a concentration of 200 mg/ml.
The test substance was administered with a probe by forced oral administration. The dose was 5000 mg/kg for one group and 2500 mg/kg for another group. Test period was 7 days. After the administration, the animals were continuously observed for 3 hr, and, thereafter, observation was effected of general symptoms every 6 hr.

sweet taste responses = test: sweet taste response inhibition test; format: in vivo; details: for taste of Aqueous Sucrose Solution, panelists ①②③④⑤: after 0.08% sample solution kept in mouth 2 min
Method: A sweet taste response inhibition test was effected for the triterpenoid saponin of the present invention and Gymnemic acid 1 and Gymnemic acid 2 obtained from Gymnema sylvestre, R. Br. known to have an inhibitory effect on glucose adsorption.
The triterpenoid saponin prepared in Example 1 and Gymnemic acid 1 and Gymnemic acid 2 were dissolved in a 0.01 M/liter aqueous sodium bicarbonate (NaHCO₃) solution to prepare a 0.08% triterpenoid saponin solution, a 0.08% Gymnemic acid 1 solution and a 0.08 % Gymnemic acid 2 solution.
Separately, 0.1 M/liter, 0.2 M/liter, 0.3 M/liter, 0.4 M/liter and 0.5 M/liter aqueous sucrose solutions were previously prepared. The sweet taste response inhibition test was effected according to the following procedure.
• 1) 5 ml of the triterpenoid saponin solution or Gymnemic acid 1 or 2 solution was kept in mouth so that it was spread in the whole mouth. • 2) 2 min after that, the sample solution was spit out, and the mouth was sufficiently rinsed with distilled water. • 3) The above-described aqueous sucrose solutions were successively kept in the mouth in the order of concentration from the lowest to the highest, and the sucrose concentration of the solution which was first sweet to the taste was recorded.

CC1(C)CC[C@]2(CO)[C@@H](O)C[C@]3(C)C(=CC[C@@H]4[C@@]5(C)CC[C@H](O[C@@H]6O[C@H](C(=O)O)[C@@H](O)[C@H](O)[C@H]6O[C@@H]6O[C@H](CO)[C@@H](O)[C@H](O)[C@H]6O)C(C)(C)[C@@H]5CC[C@]43C)[C@@H]2C1 [triterpenoid saponin, (3β,16β)-16,28-dihydroxyolean-12-en-3-yl-2-O-β-D-glucopyranosyl-β-D-glucopyranosiduronic acid]
Other general symptoms (DDF male mice; Dose 2500 mg/kg, oral, 7 days): Do. | Other general symptoms (DDF male mice; Dose 5000 mg/kg, oral, 7 days): None of the animals exhibited any abnormal symptom. | toxicity (DDF male mice; acute toxicity test, oral, mice, 7 days): no toxicity was observed | Number of dead animals (DDF male mice; 2500 mg/kg): 0 | Number of dead animals (DDF male mice; 5000 mg/kg): 0 | inhibitory effect on the sweet taste responses (sweet taste responses; 0.08% sample solution): no inhibitory effect on the sweet taste responses | taste of Aqueous Sucrose Solution, panelists ①②③④⑤ (sweet taste responses; sucrose 0.1 M/liter): Δ○○Δ○ | taste of Aqueous Sucrose Solution, panelists ①②③④⑤ (sweet taste responses; sucrose 0.2 M/liter): ○○○○○
